By mortality is commonly meant the share of the test organisms that died.

This is an account of results in ChEMBL document CHEMBL3044595, “Bioactivity of latifolin and its derivatives against termites and fungi” (2009).

Activity calls are given as the source filed them. The rule behind the calls is not given here.

In test [1] the test system is Trametes versicolor. Description: Antifungal activity against Trametes versicolor NBRC 30340 assessed as mycelial growth inhibition at 5 ug/cm'2 at 25.5 degC after 5 days. It is filed as functional.
Test [2] deals with Fomitopsis palustris. Nature of the test: Antifungal activity against Fomitopsis palustris NBRC 30339 assessed as diameter of mycelial growth at 5 ug/cm'2 at 25.5 degC after 14 days. It is filed as functional.
The subject of test [3] is Reticulitermes speratus. Description: Antitermite activity against Reticulitermes speratus in compound pretreated paper disks assessed as mortality at 3% measured after 14 days. It is filed as functional.
The subject of test [4] is Trametes versicolor. Nature of the test: Antifungal activity against Trametes versicolor NBRC 30340 assessed as diameter of mycelial growth at 5 ug/cm'2 at 25.5 degC after 5 days. It is filed as functional.
Test [5] relates to Reticulitermes speratus. Nature of the test: Antifeedant activity against Reticulitermes speratus in compound pretreated paper disks assessed as mass loss of the paper disk at 3% measured after 14 days (reference value: 7.67 mg). It is filed as functional.
A further test concerns Rhizopus arrhizus. Nature of the test: Antifungal activity against Rhizopus oryzae NBRC 31005 assessed as mycelial growth inhibition at 5 ug/cm'2 at 25.5 degC after 36 hr. It is filed as functional, organism-based.
Test [6] relates to Cladosporium cladosporioides. Nature of the test: Antifungal activity against Cladosporium cladosporioides NBRC 6348 assessed as diameter of mycelial growth at 5 ug/cm'2 at 25.5 degC after 20 days. It is filed as functional.
For test [7], the system named is Fomitopsis palustris. Description: Antifungal activity against Fomitopsis palustris NBRC 30339 assessed as mycelial growth inhibition at 5 ug/cm2 at 25.5 degC after 14 days. It is filed as functional.
Test [8] deals with Reticulitermes speratus. Nature of the test: Ratio of antitermite activity for compound to antitermite activity for latifolin against Reticulitermes speratus at 3% measured after 14 days. It is filed as functional.
In test [9] the test system is Reticulitermes speratus. Nature of the test: Ratio of antifeedant activity for compound to antifeedant activity for latifolin against Reticulitermes speratus at 3% measured after 14 days. It is filed as functional.

For `C=C[C@H](c1ccccc1O)c1cc(O)c(OC)cc1OC` [LATIFOLIN], the “inhibition (INH)” value in the test with Trametes versicolor [1] worked out at 79.1%; in the test on Fomitopsis palustris [7], 37.5%. Moreover, the Activity in the test with Fomitopsis palustris [2] stood at 32.5 mm; in the test on Trametes versicolor [4], 15 mm; in the test on Reticulitermes speratus [5], 0.39 mg; in [6], 26.2 mm. In addition, the mortality with Reticulitermes speratus [3] came out at 26.7%. Moreover, the inhibition result in the test on Rhizopus arrhizus was “inactive”.

As to `C=C[C@H](c1ccccc1O)c1cc(OC)c(OC)cc1OC` [5-O-METHYLLATIFOLIN], the “inhibition (INH)” value is 13.2% with Trametes versicolor [1] and -0.5% in the test on Fomitopsis palustris [7]. Also, the Activity is on record as 52.3 mm in the test with Fomitopsis palustris [2], 62.3 mm with Trametes versicolor [4], 1.29 mg in the test on Reticulitermes speratus [5] and 29.2 mm in [6]. The results for the Ratio in the test with Reticulitermes speratus [8] and in the test on Reticulitermes speratus [9] were 1.13 and 3.25, respectively. Moreover, the mortality with Reticulitermes speratus [3] turned out to be 30%. Also, the inhibition result in the test with Rhizopus arrhizus is “inactive”.

With `C=C[C@H](c1ccccc1OC)c1cc(O)c(OC)cc1OC` [2'-O-METHYLLATIFOLIN], the entries for the “inhibition (INH)” value in the test on Trametes versicolor [1] and in the test with Fomitopsis palustris [7] were 16.5% and 18.3%, respectively. Besides, the Activity in the test with Fomitopsis palustris [2] was 42.5 mm; with Trametes versicolor [4] it was 60 mm; with Reticulitermes speratus [5] it was 0.82 mg; in test [6], 30 mm. In addition, the Ratio in the test on Reticulitermes speratus [8] was determined as 1.75; with Reticulitermes speratus [9], 1.98. In addition, in the test with Reticulitermes speratus [3], the mortality stood at 46.7%. Besides, in the test with Rhizopus arrhizus, the inhibition result is “inactive”.

Turning to `C=C[C@H](c1ccccc1OC)c1cc(OC)c(OC)cc1OC` [LATIFOLIN DIMETHYL ETHER], the “inhibition (INH)” value is 15.3% in the test with Trametes versicolor [1] and -9.6% with Fomitopsis palustris [7]. Moreover, the Activity with Fomitopsis palustris [2] is on record as 57 mm; in the test with Trametes versicolor [4] it was 60.8 mm; in the test on Reticulitermes speratus [5], 1.27 mg; in test [6] it was 29.3 mm. Moreover, the Ratio was determined as 2.13 with Reticulitermes speratus [8] and 3.42 in the test with Reticulitermes speratus [9]. In addition, the mortality with Reticulitermes speratus [3] is given as 56.7%. Also, the inhibition entry in the test with Rhizopus arrhizus is “inactive”.

For the molecule `C=C[C@@H](c1cc(OC(C)=O)c(OC)cc1OC)c1ccccc1OC(C)=O` [LATIFOLIN DIACETATE], the entries for the “inhibition (INH)” value in the test on Trametes versicolor [1] and in the test with Fomitopsis palustris [7] were 21.8% and 1.4%, respectively. Further, the Activity with Fomitopsis palustris [2] came to 51.3 mm; in the test with Trametes versicolor [4], 56.2 mm; in the test on Reticulitermes speratus [5] it was 1.13 mg; in test [6] it was 28.7 mm. The Ratio with Reticulitermes speratus [8] was found to be 2; in the test on Reticulitermes speratus [9], 2.89. Further, the mortality in the test with Reticulitermes speratus [3] is 53.3%. Further, in the test with Rhizopus arrhizus, the inhibition entry is “inactive”.
